The source of these data is US20060252820A1, “Composition for oral administration containing alkylene dioxybenzene derivative” (priority 2003, published 2006).

A short description of this series: Conventional preparation of MKC-242 administered to a human. Format: in vivo. The conditions noted are these: conventional preparation (tablet) administered to a human.

For the compound `Cl.c1ccc2c(c1)OC[C@H](CNCCCOc1ccc3c(c1)OCO3)O2` [MKC-242, 5-[3-[[(2S)-1,4-benzodioxan-2-ylmethyl]amino]propoxy]-1,3-benzodioxole hydrochloride], where the note is “depending on drug concentration in plasma, all slight”, the symptoms recognized entry is “nausea, dizziness, orthostatic syncope”. For the same compound, the half-life (plasma, oral, read-out: half-life T1/2) was 2 to 5 h.
